Measurements reported in patent US20250228794A1, “HOMOVANILLYL ALCOHOL (HVA), HVA ISOMER, METHODS OF MAKING COMPOSITIONS COMPRISING SUCH COMPOUNDS, AND METHODS USING SUCH COMPOUNDS” (SOCIETE DES PRODUITS NESTLE S.A., priority 2017, published 2025).

Key:
[1] = Urinary excretion of oleuropein metabolites after intake of olive leaf extract (pilot study, LC-MS)
Method: Specifically, urine samples were enzymatically treated to hydrolyze the glucuronide and sulfate moieties and release the free forms which were quantified. After sample purification by liquid-liquid extraction, the chromatographic separation was operated on an Acquity™ UPLC® BEH C18 column (1.7 μm, 2.1×150 mm). The mobile phase consisted of 1 mmol/L ammonium acetate buffer and methanol under gradient conditions at a flow-rate of 0.25 mL/min. Hydroxytyrosol, homovanillyl alcohol, and the homovanillyl alcohol isomer 3-hydroxy-4-methoxyphenethanol (alternatively named 3-hydroxy-4-methoxyphenethyl alcohol) were identified and quantified by high performance liquid chromatography-electrospray ionization tandem mass spectrometry (HPLC-ESI-MS/MS) and by comparison with their corresponding chemically synthesized standards.
The circulating concentration and kinetics of absorption of phenolic compounds and their metabolites in biological fluids (plasma or urine) depends on the matrix in which the compounds are ingested, the dose ingested, the time point of sample collection, the microflora of each individual, and the metabolism of each individual. To develop the most appropriate analytical approach for the measurement of OE absorption, a pilot study was conducted. Specifically, five subjects collected urine at baseline (before intake of the olive leaf extract) and between the intakes of two capsules of the olive leaf extract.
The analytical method (sample preparation, deconjugation conditions, chromatographic detection and separation) was first developed by spiking chemical standards which were commercially available in commercial urine. The deconjugation conditions were determined by using the conjugates available, hydroxytyrosol sulfate and homovanillyl alcohol glucuronide. The commercially available chemical standards were 3,4-Dihydroxybenzoic acid; 3,4-Dihydroxyphenylacetic acid; Homovanillic acid; Homovanillyl alcohol; Homovanillyl alcohol glucuronide (vanillyl methanol glucuronide); Hydroxytyrosol; Hydroxytyrosol sulfate (hydroxytyrosol sulfate triethylammonium salt); and Vanillic acid.
Briefly, the sample preparation consisted of a liquid-liquid extraction with ethyl acetate after a protein precipitation using acidified methanol.
Regarding chromatographic analysis, Oleuropein metabolites were separated by reversed-phase ultra-performance liquid chromatography using a C18-column Acquity UPLC BEH C18 1.7 μm, 2.1 mm×150 mm, (Waters AG, Switzerland). The system consisted of a LC system Acquity™ UPLC® (Waters AG, Switzerland) coupled with a Qtrap 5500 Mass spectrometer detector equipped with an electrospray ionization source (ABSciex, Switzerland). Detection was performed in the negative operating mode at unit resolution.
Specifically, a preliminary analysis of the urine samples collected after intake of the olive leaf extract was performed by electrospray ionization (ESI) in the negative ion mode, scanning for the different [M−H]^− ions at the theoretical m/z of the expected oleuropein metabolites and conjugates (Table 1).
Relative amount of the metabolites identified was first evaluated to clarify if their excretion in urine was increasing after intake of the olive leaf extract. This evaluation was based on the measurement of the area under the corresponding chromatographic peak, which reflects the amount.

cyclooxygenase-2 (COX-2) = assay: COX-2 gene expression in chondrocytes (anti-inflammatory effect); type: cell-based; details: FIG. 17B
Method: (§1) Chondrocytes in alginate beads were subjected to a two-hour polyphenols pre-treatment followed by a twenty-four hour IL1-α stimulation.
(§2) Then the anti-inflammatory effect of oleuropein metabolites in chondrocytes was studied.
Regarding FIG. 17B, cyclooxygenase-2 (COX-2) is another inflammation-related gene. It is linked to the Prostaglandin E2 (PGE2) pathway. OLP, EA and HVOH were efficient at 2 μM. OLP, OEA and HVOH were efficient at 10 μM.

inflamed chondrocytes [2] = assay: Collagen in culture media of inflamed chondrocytes (catabolism); type: cell-based; details: FIG. 18B
Description: as §1
(§3) Next it was shown that oleuropein metabolites prevent collagen breakdown in inflamed chondrocytes (FIGS. 18A and 18B). In this regard, collagen in extra-cellular matrix corresponds to the collagen synthesized by the cells, i.e., anabolism. […] Collagen in culture media corresponds to the collagen degraded by cells and released in the media, i.e., […].

inflamed chondrocytes [3] = assay: Collagen in extra-cellular matrix of inflamed chondrocytes (anabolism); type: cell-based; details: FIG. 18A
Description: as §1, §3

chondrocytes = assay: Effects of oleuropein metabolites on chondrocytes (overall); type: cell-based; details: synthetic form; comparison with hydroxytyrosol
Method: As also set forth in detail later herein, several metabolites of oleuropein were tested for their effects on chondrocytes.
as §1

Collagen-II = Collagen-II gene expression in chondrocytes in alginate beads, IL1-α stimulation; type: cell-based; details: two-hour pre-treatment, twenty-four hour IL1-α stimulation; polyphenols at 10 μM; FIG. 16A
Description: as §1
Regarding FIG. 16A, Collagen-II is an anabolism-related gene for major structural components of the extracellular matrix of joints.

[4] = test system: inducible isoform of nitric oxide synthase (iNOS); assay: iNOS gene expression in chondrocytes (anti-inflammatory effect); type: cell-based; details: FIG. 17A
Description: as §1, §2
Regarding FIG. 17A, the inducible isoform of nitric oxide synthase (iNOS) is an inflammation-related gene linked to NO production.

[5] = urine after intake of olive leaf extract, LC-MS, MS2/MS3

## COc1cc(C(=O)O)ccc1O [vanillic acid, Vanillic acid]
[1]; human, in vivo
  change of amount in urine (area under the peak) after intake of olive leaf extract versus basal: strongly increases in urine of subjects 2 and 4, but not as much in subjects 1, 3 and 5
[1]; [5]
  detection and identification in urine: detected in samples after intake of the olive leaf extract and in basal samples

## O=C(O)c1ccc(O)c(O)c1 [3,4-dihydroxybenzoic acid]
[1]; in vivo
  change of amount in urine (area under the peak) after intake of olive leaf extract versus basal: do not increase
  detection and identification in urine: detected in samples after intake of the olive leaf extract and in basal samples

## Elenolic acid [EA]
cyclooxygenase-2 (COX-2); 2 μM
  COX-2 gene expression: efficient
Inflamed chondrocytes [2]
  collagen in culture media (collagen degraded and released, catabolism): potent anti-breakdown effect (improved over control)
[1]; in vivo
  detection and identification in urine: none of them could be confirmed as being EA

## CC=C1C(O)OC=C(C(=O)OC)C1CC(=O)OCCc1ccc(O)c(O)c1 (stereo not drawn) [oleuropein aglycone, 3,4-dihydroxyphenylethanol-elenolic acid]
Inflamed chondrocytes [3]
  collagen in extra-cellular matrix (collagen synthesized by the cells, anabolism): protective effect
cyclooxygenase-2 (COX-2); 10 μM
  COX-2 gene expression: efficient
[1]; in vivo
  Number of forms confirmed in urine: 1
  average of the area under the chromatographic peak in urine: 2×10^6

## OCCc1ccc(O)c(O)c1 [hydroxytyrosol, 3,4-dihydroxyphenylethanol, reference compound]
[1]; human, in vivo
  Number of forms confirmed in urine: 1
  average of the area under the chromatographic peak in urine: 7.7×10^6
[1]; in vivo
  change of amount in urine (area under the peak) after intake of olive leaf extract versus basal: specifically increase after intake of olive leaf extract
  detection and identification in urine: Presence & identity confirmed
  form excreted in urine: mainly as conjugated form
  relative abundance excreted in urine: more abundant than HVOH

## Methylated oleuropein aglycone
[1]; in vivo
  detection and identification in urine: Not detected

## COc1cc(CC(=O)O)ccc1O [homovanillic acid, Homovanillic acid]
[1]; FIG. 15, subjects 1 to 5
  change of amount in urine (area under the peak) after intake of olive leaf extract versus basal: do not increase

## O=C(O)Cc1ccc(O)c(O)c1 [3,4-dihydroxyphenylacetic acid, 3,4-Dihydroxyphenylacetic acid]
[1]; in vivo
  change of amount in urine (area under the peak) after intake of olive leaf extract versus basal: do not increase
  detection and identification in urine: detected in samples after intake of the olive leaf extract and in basal samples

## Elenolic acid sulfate [EA-S]
[1]; in vivo
  detection and identification in urine: Neither ion of elenolic acid sulfate nor of elenolic acid glucuronide (EA-S or EA-G) could be detected

## COc1ccc(CCO)cc1O [homovanillyl alcohol isomer, 3-hydroxy-4-methoxyphenethanol]
chondrocytes
  effects on chondrocytes: more effective than hydroxytyrosol
Inflamed chondrocytes [2]
  collagen in culture media (collagen degraded and released, catabolism): potent anti-breakdown effect (improved over control)
Collagen-II
  Collagen-II gene expression (protective effect): significant effect
[4]; 2 μM
  iNOS gene expression (protective effect): significant effect
[4]; 10 μM
  iNOS gene expression (protective effect): significant effect

## COc1cc(CCO)ccc1O[C@@H]1O[C@H](C(=O)O)[C@@H](O)[C@H](O)[C@H]1O [Homovanillyl alcohol glucuronide]
[1]; in vivo
  Number of forms confirmed in urine: 1
  detection and identification in urine: Presence & identity confirmed

## COc1cc(CCO)ccc1O [homovanillyl alcohol]
cyclooxygenase-2 (COX-2); 2 μM
  COX-2 gene expression: efficient
cyclooxygenase-2 (COX-2); 10 μM
  COX-2 gene expression: efficient
chondrocytes
  effects on chondrocytes: more effective than hydroxytyrosol
Inflamed chondrocytes [2]
  collagen in culture media (collagen degraded and released, catabolism): potent anti-breakdown effect (improved over control)
[1]; human, in vivo
  Number of forms confirmed in urine: 2
[1]; in vivo
  change of amount in urine (area under the peak) after intake of olive leaf extract versus basal: specifically increase after intake of olive leaf extract
  detection and identification in urine: Presence & identity confirmed
  form excreted in urine: mainly as conjugated form

## Hydroxytyrosol sulfate
[1]; urine after intake of olive leaf extract
  Number of forms confirmed in urine: 1
[1]; [5]
  detection and identification in urine: Presence & identity confirmed

## Oleuropein aglycone sulfate
[1]; in vivo
  Number of forms confirmed in urine: 1

## Oleuropein aglycone glucuronide
[1]; in vivo
  Number of forms confirmed in urine: 2
  detection and identification in urine: Presence & identity confirmed
